Measured values: patent US5594024A, “Centrally actig substituted phenylazacycloalkanes” (priority 1995, dated 1997)
“Also recorded” adds a separate entry of the source.

What was measured:
D2 receptors = target: T1, D2 receptors (Rattus norvegicus, UniProt P61169); assay: D2 antagonist binding ([3H]-spiperone), rat striatum
T1 construct: Preparation of rat striatal membranes for (3H)-spiperone; from tissue; host or cells: rat striatum (striatal membranes)
Method: D2 antagonist binding. Preparation of rat striatal membranes for (3H)-spiperone (specific activity 21-24 Ci/mmol) binding was carried out in a similar manner as described for D1-binding, Hyttel et al., J. Neural. Transm., 68, 171 (1987).
IC50 values were calculated by semi-log plot and linear regression analysis.

5-HT1A = target: T2, 5-HT1A (Rattus norvegicus, UniProt P19327); assay: 5-HT1A radioligand binding ([3H]-8-OH-DPAT); design: species or system rat (male Sprague-Dawley)
T2 construct: the whole brain with the exception of the brainstem and cerebellum was rapidly removed; from tissue
T2 sequence (P19327 1-422): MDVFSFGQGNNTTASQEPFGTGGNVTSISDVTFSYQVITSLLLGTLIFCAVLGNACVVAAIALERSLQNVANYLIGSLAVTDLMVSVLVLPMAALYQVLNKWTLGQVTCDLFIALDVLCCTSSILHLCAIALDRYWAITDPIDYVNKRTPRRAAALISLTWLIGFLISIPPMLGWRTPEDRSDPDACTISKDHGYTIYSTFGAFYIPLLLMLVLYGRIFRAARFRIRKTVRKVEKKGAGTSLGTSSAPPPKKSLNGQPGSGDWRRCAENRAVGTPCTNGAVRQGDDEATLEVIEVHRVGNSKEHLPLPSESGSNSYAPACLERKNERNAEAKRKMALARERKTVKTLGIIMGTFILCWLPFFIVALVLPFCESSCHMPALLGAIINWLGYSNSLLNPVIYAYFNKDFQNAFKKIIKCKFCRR
How it was run: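 Rat forebrain membranes (whole brain minus brainstem and cerebellum) in 50 mM Tris pH 8.0 with NaCl, CaCl2, MgCl2 and 10 μM pargyline; 1 nM [3H]-8-OH-DPAT, 15 min at 37° C., filtration. Nonspecific binding defined with 10 μM 5-HT; IC50 by semi-log plot and linear regression.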

DA receptor [1] = assay: DA metabolism (DOPAC, HVA levels) in habituated rats; assay type: in vivo, rat (male Sprague-Dawley); details: Rattus norvegicus, 1 h, read-out: DOPAC limbic
How it was run: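 Rats habituated to motility meters 60 min, no NSD given; killed one hour after drug administration (injection volume 5 mL/kg). Striatal and limbic DOPAC, HVA and 5-HIAA measured by HPLC-EC, expressed as % of controls (means ±SEM).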

habituated rats = assay: Locomotor activity and behavior in habituated rats; assay type: in vivo, rat (male Sprague-Dawley); details: 60 min
Method: Footnotes Table 3. The rats were habituated to the motility meters 60 min
prior to the activity session.
Injection volumes were 5 mL/kg.
Locomotor activity was measured in rats which were habituated 60 minutes to the activity meters before drug injection. The activity was measured for the subsequent 60 minutes and expressed as % of controls (means ±SEM, n=4).

[2] = test system: central dopamine receptors; assay: Locomotor activity and DA synthesis in reserpinized rats; assay type: in vivo, rat; details: reserpinized rats
[3] = test system: d-amphetamine-induced hyperactivity; assay: d-Amphetamine-induced hyperactivity in habituated rats; assay type: in vivo, rat
DA receptor [4] = assay: DOPA accumulation (DA synthesis rate) in non-pretreated rats after NSD 1015; details: for duration of the increase in brain DOPA accumulation: 50 μmol/kg
Method: injected with NSD 1015 (100 mg/kg, i.p.) and then killed 30 min later.
In-vivo determination of rat brain monoamine metabolites and tyrosine and tryptophan hydroxylation (biochemically monitored DA and 5-HT receptor agonist or antagonist activity).
The compounds under evaluation were tested biochemically for central DA and 5-HT receptor (pre- and/or postsynaptic) stimulating and/or blocking activity. The concept of this biochemical screening method is that a DA or 5-HT receptor agonist will stimulate the receptor and through regulatory negative feed-back systems induce a decline in tyrosine or tryptophan hydroxylating activity, respectively, and a subsequent reduction in the synthesis rate of DA and 5-HT in the presynaptic neuron. […] The biochemical experiments and the determinations of Dopa and 5-HTP by means of HPLC with electrochemical detection were performed. The antagonistic effects were seen as increases in the synthesis rate (n=4), as a result of the positive feed-back upregulation of synthesis. The effects on Dopa and 5-HTP accumulation are expressed as % of controls, which were: DOPA limbic system=447±23 ng/g and DOPA striatum=1045±47ng/g, 5-HTP limbic region 241±2 ng/g (Table 2).
(§1) Animals used in the biochemical and motor activity experiments were male rats of the Sprague-Dawley strain (ALAB, Sollentuna, Sweden), weighing 200-300 g. The rats were kept 5 per cage with free access to water and food (except for the starved animals for the experiments with per oral administration, who were only allowed water the last 18 hours before testing), at least one week from arrival until used in the experiments.
(§2) All substances to be tested were dissolved in saline immediately before use, occasionally with the addition of a few drops of glacial acetic acid and/or moderate heating in order to obtain complete dissolution. Injection volumes were 5 mL/kg.
Analysis of variance (ANOVA) followed by Fischer's test was used for the statistical calculations. P values less than 0.05 were regarded statistically significant.
DOPA accumulation (DA synthesis rate) in non-pretreated rats (Table 2). After the locomotor activity session (see Table 2, above) the rats were injected with the decarboxylase inhibitor NSD 1015 (100 mg/kg, sc) and killed 30 minutes later. The DOPA accumulation in the DA -rich limbic and striatal and the NE-rich cortical (mainly hemispheres) brain areas were expressed as % of saline treated controls.
DOPA accumulation, time course after s.c. and p.o. administration (Table 2). […] NSD 1015 (100 mg/kg, sc) was injected 30 minutes before death. The data are expressed as % of saline treated controls.

non-pretreated rats = assay: Locomotor activity and gross behavior in non-habituated (non-pretreated) rats; details: for Gross Behavioral Observations: non-pretreated rats
Text: Immediately after drug administration, the rats were placed in the test cages (one rat/cage) and put into the motility meters. […] Observations of gross behavior were made throughout the activity sessions through semi-transparent mirrors.
as §1, §2
Analysis of variance (ANOVA) followed by Fischer's test was used for the statistical calculations.
In vivo behavioral data was obtained with rats injected with drug and 5 minutes later put into the motility chambers for the first time. The motor activity was measured for the subsequent 30 minutes (accumulated counts/30 minutes) and expressed as % of saline treated controls.

T1 sequence (P61169 whole entry): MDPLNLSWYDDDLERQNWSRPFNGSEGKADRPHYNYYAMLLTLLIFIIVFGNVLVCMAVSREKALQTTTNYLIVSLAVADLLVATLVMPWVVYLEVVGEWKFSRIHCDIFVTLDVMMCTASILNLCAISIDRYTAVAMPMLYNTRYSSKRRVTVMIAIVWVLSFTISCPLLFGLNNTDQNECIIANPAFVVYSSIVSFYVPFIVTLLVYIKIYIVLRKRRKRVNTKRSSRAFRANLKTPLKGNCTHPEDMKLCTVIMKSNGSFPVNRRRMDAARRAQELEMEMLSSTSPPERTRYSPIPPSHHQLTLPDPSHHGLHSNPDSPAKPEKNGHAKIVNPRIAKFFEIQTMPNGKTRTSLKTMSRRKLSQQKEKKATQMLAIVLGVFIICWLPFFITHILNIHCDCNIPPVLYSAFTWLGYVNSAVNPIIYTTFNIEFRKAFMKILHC

CCCN1CCC[C@@H](c2cccc(C#N)c2)C1 [S-(-)-34, S-(-)-3-(3-Cyanophenyl-N-n-propyl)piperidine]
affinity for D2 receptors (in words) (D2 receptors; (3H)-Spiperone binding): weak, affinity to the dopamine D2 receptor site
IC50 (D2 receptors; read-out: in vitro binding IC50, D2 -spip, [3H]-spiperone, rat striatum): 3.5 µM
affinity for the 5-HT1A receptors in vitro (in words) (5-HT1A): very low affinity for the 5-HT1A receptors
IC50 (5-HT1A; [3H]-8-OH-DPAT, rat cortex, read-out: in vitro binding IC50, 5HT1A): 75 µM
response vs control in vivo at 25 µmol/kg (DA receptor [1]; po): 138 ± 13%
response vs control in vivo at 100 µmol/kg (DA receptor [1]; sc): 226 ± 11%
locomotor stimulation in habituated rats (habituated rats; % of controls): +600%
response vs control in vivo at 25 µmol/kg (habituated rats; Rattus norvegicus, 1 h, 25 μmol/kg po, habituated rats, read-out: Motor Activity): 231 ± 31%
DA synthesis rate / DOPA accumulation in reserpinized rats (in words) [2]: failed to affect the DOPA accumulation in reserpinized
effect on d-amphetamine-induced hyperactivity ([3]; 64 mg/kg, sc, d-amphetamine 5.0 mg/kg): failed to block the hyperactivity
effect combined with lower dose of d-amphetamine ([3]; d-amphetamine 0.5 mg/kg, sc): additive stimulatory effect
block of d-amphetamine-induced hyperactivity (in words) ([3]; even at high doses): failed to block d-amphetamine-induced hyperactivity even at high doses
effect on activation induced by high dose d-amphetamine ([3]; test compound 14 mg/kg, sc, d-amphetamine 5 mg/kg): failed to affect the strong activation
duration of the increase in brain DOPA accumulation (DA receptor [4]; po): 1.5 to 2.5 h
duration of the increase in brain DOPA accumulation (DA receptor [4]; s.c.): 2.5 to 4.5 h
DOPA accumulation in limbic and striatal brain regions (in words) (DA receptor [4]; 3.1-200 μmol/kg, s.c.): elevated in the limbic (limb.) and striatal (stri) brain regions with a maximal response equal to that observed for classical neuroleptics such as haloperidol
DOPA acc Cortex (DA receptor [4]; 50 sc): 155 ± 9 % of saline controls
DOPA acc Stratium (DA receptor [4]; 50 sc): 285 ± 3 % of saline controls
DOPA acc Cortex (DA receptor [4]; 100 sc): 158 ± 8 % of saline controls
DOPA acc Stratium (DA receptor [4]; 100 sc): 268 ± 16 % of saline controls
DOPA acc Cortex (DA receptor [4]; 200 sc): 148 ± 16 % of saline controls
DOPA acc Stratium (DA receptor [4]; 200 sc): 294 ± 26 % of saline controls
estimated availability (DA receptor [4]; from DOPA accumulation in the striatum after sc and po administration): 50%
cortical DOPA formation (in words) (DA receptor [4]; s.c.): slightly, but statistically significantly increased; also recorded: slight increase in cortical DOPA accumulation
increase in motor activity, maximal effect (non-pretreated rats; 25-200 μmol/kg, sc, dose-dependent monophasic, non-habituated rats): +60%
Gross Behavioral Observations (non-pretreated rats; 50 sc): Activation
Gross Behavioral Observations (non-pretreated rats; 100 sc): Activation
Gross Behavioral Observations (non-pretreated rats; 200 sc): No change
